According to article PMC8067507, “Aryl Urea Based Scaffolds for Multitarget Drug Discovery in Anticancer Immunotherapies” (Pharmaceuticals, 2021):

What was measured:
[1] = test system: c-Myc; test: c-Myc quantification by flow cytometry in A-549; type: cell-based, human; details: A-549, 10 μM, 24 h, referred to control (DMSO)
Procedure: (§1) We evaluated the effect of the selected compounds on PD-L1 and on c-Myc proteins by flow cytometry after 24 h treatment at 10 μM concentration of compounds. Both, PD-L1 and c-Myc were relatively determined using DMSO treated cells as a negative control and BMS-8 as a positive one.
(§2) For the detection of total PD-L1 and c-Myc, cancer cells were seeded (3 × 10^5 cells/well) in 6-well plates and were incubated with the corresponding compounds for 24 h. Then they were collected, fixed, treated with 0.5% Triton^TM X-100 and stained with Alexa Fluor® 647 Rabbit monoclonal Anti-PD-L1 (ab215251) and FITC Rabbit monoclonal anti-c-Myc (ab223913).
(§3) We also checked results performing ELISA tests. For ELISA tests, lysates were collected, protein quantification was carried out by Bradford test and, then, PD-L1 and c-Myc were quantified using Human PD-L1 ELISA Kit 28-8 (ab214565) and c-Myc (Total) Human ELISA Kit (KHO2041), respectively, according to the manufacturer’s instructions.

[2] = test system: HEK-293 (human embryonic kidney cells); test: Cell proliferation assay (MTT); type: cell-based; details: HEK293, 48 h, 2 days incubation, average ± SD of three experiments
From the text: (§4) The ability of Ureas 13–33 to inhibit cell proliferation was established by means of their IC50 values towards the human tumor cell lines HT-29 (colon adenocarcinoma), MCF-7 (breast adenocarcinoma), HeLa (epithelioid cervix carcinoma) and A549 (pulmonary adenocarcinoma), as well as towards the endothelial cell line HMEC-1 (human microvascular endothelial cells) and the non-tumor cell line HEK-293 (human embryonic kidney cells).
(§5) HT-29, MCF-7, HeLa, A549 and HEK-293 cell lines were maintained in Dulbecco’s modified Eagle’s medium (DMEM) containing glucose (1 g/L), glutamine (2 mM), penicillin (50 μg/mL), streptomycin (50 μg/mL), and amphotericin B (1.25 μg/mL), supplemented with 10% FBS. HMEC-1 cell line was maintained in Dulbecco’s modified Eagle’s medium (DMEM)/low glucose containing glutamine (2 mM), penicillin (50 μg/mL), streptomycin (50 μg/mL), and amphotericin B (1.25 μg/mL), supplemented with 10% FBS. For the development of tube formation assays in Matrigel, HMEC-1 cells were cultured in EGM-2MV Medium supplemented with EGM-2MV SingleQuots.
(§6) In 96-well plates, 3 × 10^3 (HeLa, A549, HMEC-1, HEK-293) or 5 × 10^3 (HT-29, MCF-7) cells per well were incubated with serial dilutions of the tested compounds in a total volume of 100 μL of their respective growth media. The 3-(4,5-dimethylthiazol-2-yl)-2,5-diphenyltetrazolium bromide (MTT; Sigma Chemical Co.) dye reduction assay in 96-well microplates was used. After 2 days of incubation (37 °C, 5% CO2 in a humid atmosphere), 10 μL of MTT (5 mg/mL in phosphate-buffered saline, PBS) was added to each well, and the plate was incubated for a further 3 h (37 °C). After that, the supernatant was discarded and replaced by 100 µL of DMSO to dissolve formazan crystals. The absorbance was then read at 540 nm by spectrophotometry. For all concentrations of compound, cell viability was expressed as the percentage of the ratio between the mean absorbance of treated cells and the mean absorbance of untreated cells. Three independent experiments were performed, and the IC50 values (i.e., concentration half inhibiting cell proliferation) were graphically determined using GraphPad Prism 4 software.

[3] = test system: A549 (pulmonary adenocarcinoma); test: Cell proliferation assay (MTT); type: cell-based; details: Homo sapiens, A549, 48 h, 2 days incubation, average ± SD of three experiments
From the text: as §4, §5, §6

[4] = test system: HT-29 (colon adenocarcinoma); test: Cell proliferation assay (MTT); type: cell-based; details: Homo sapiens, HT-29, 48 h, 2 days incubation, average ± SD of three experiments
From the text: as §4, §5, §6

[5] = test system: MCF-7 (breast adenocarcinoma); test: Cell proliferation assay (MTT); type: cell-based; details: Homo sapiens, MCF7, 48 h, 2 days incubation, average ± SD of three experiments
From the text: as §4, §5, §6

[6] = test system: HeLa (epithelioid cervix carcinoma); test: Cell proliferation assay (MTT); type: cell-based; details: Homo sapiens, 48 h, 2 days incubation, average ± SD of three experiments
From the text: as §4, §5, §6

[7] = target: T1, PD-L1 (Homo sapiens, UniProt Q9NZQ7); test: PD-L1 quantification by flow cytometry in HT-29; type: cell-based; details: HT-29, 10 μM, 24 h, referred to control (DMSO)
Procedure: as §1, §2, §3

[8] = target: T1, PD-L1; test: PD-L1 quantification by flow cytometry in A-549; type: cell-based; set-up: endogenous in cells; host or cells: A-549 cancer cells; details: A-549, 10 μM, 24 h, referred to control (DMSO)
Procedure: as §1, §2, §3

[9] = test system: HT-29 cells; test: Cell proliferation evaluation in co-cultures: HT-29 with Jurkat T cells; type: cell-based, human; details: IFN-γ stimulated HT-29 co-cultured with Jurkat T cells, 10 µM, 24 h; five experiments
Procedure: We also studied the effect of Compounds 16, 23, 26 and 33 on tumor cell proliferation in the presence of PD-1 expressing Jurkat T-cells. For this assay, first interferon γ stimulated HT-29 cells were treated for 24 h with the selected compounds at 10 µM in presence of Jurkat T cells. Then, living cells were counted using trypan blue and a Neubauer chamber and by flow cytometry.
In 12-well plates, 10^5 HT-29 cells per well were seeded and incubated for 24 h with cell culture medium supplemented with IFN-γ (10 ng/mL; human, Invitrogen®) then medium was change by one containing 4 × 10^5 Jurkat T cells per well and 10 μM of the corresponding compound or DMSO for the control. After 24 h of incubation, supernatants were collected to determine Jurkat T cell living cells and, on the other hand, HT-29 cells were collected with trypsin. Both types of suspension cells were counted with the Neubauer chamber and trypan blue and also by flow cytometry.

[10] = test system: c-Myc; test: c-Myc quantification by flow cytometry in HT-29; type: cell-based, human; details: HT-29, 10 μM, 24 h, referred to control (DMSO)
Procedure: as §1, §2, §3

[11] = test system: all tested cell lines (HT-29, MCF-7, HeLa, A549, HMEC-1, HEK-293); set-up: method as in PMID 30878834; details: chlorophenyl derivatives of the previous study; read-out: IC50 values (range over cell lines); cited from earlier work
[12] = test system: HMEC-1 (human microvascular endothelial cells); test: Cell proliferation assay (MTT); type: cell-based; details: HMEC-1, 48 h, 2 days incubation, average ± SD of three experiments
From the text: as §4, §5, §6

[13] = test system: HMEC-1 cells; test: Tube formation inhibition assay; type: cell-based, human; details: HMEC-1 on Matrigel, 20 h incubation; average of three experiments
Procedure: as §5
Wells of an IBIDI μ-slide angiogenesis (IBIDI, Martinsried, Germany) were coated with 12 μL of Matrigel® (10 mg/mL, BD Biosciences) at 4 °C. After gelatinization at 37 °C for 30 min, HMEC-1 cells were seeded at 2 × 10^4 cells/well in 35 μL of culture medium on top of the Matrigel and were incubated 30 min at 37 °C while are attached. Then, compounds were added dissolved in 35 μL of culture medium and after 20 h of incubation at 37 °C, tube destruction was evaluated.

[14] = target: T2, VEGFR-2 (Homo sapiens, UniProt P35968); test: VEGFR-2 quantification by flow cytometry in HMEC-1; type: cell-based; set-up: Both membrane and total VEGFR-2 were relatively determined using dimethyl sulfoxide (DMSO) treated cells as a negative control; endogenous in cells; host or cells: HMEC-1 (human microvascular endothelial cells); details: 10 µM, 24 h, relative to DMSO control
Procedure: (§7) We performed the study on both a HT-29 cancer cell line and a human microvessel endothelial cell line (HMEC-1). […] The effect of these selected derivatives on VEGFR-2, on HT-29 tumor cell line and on human microvessel endothelial cells (HMEC) was determined by flow cytometry technique. […] For these assays, cells were incubated for 24 h in the presence of the corresponding compounds at 10 µM concentration.

[15] = target: T2, VEGFR-2; test: VEGFR-2 quantification by flow cytometry in HT-29; type: cell-based; set-up: Both membrane and total VEGFR-2 were relatively determined using dimethyl sulfoxide (DMSO) treated cells as a negative control; endogenous in cells; host or cells: HT-29 (colon adenocarcinoma) and HMEC-1 (human microvascular endothelial cells); details: 24 h; for Membrane VEGFR-2 (%) / Total VEGFR-2 (%): HT-29, 10 µM, relative to DMSO control
Procedure: as §7

T2 sequence (P35968 20-1356): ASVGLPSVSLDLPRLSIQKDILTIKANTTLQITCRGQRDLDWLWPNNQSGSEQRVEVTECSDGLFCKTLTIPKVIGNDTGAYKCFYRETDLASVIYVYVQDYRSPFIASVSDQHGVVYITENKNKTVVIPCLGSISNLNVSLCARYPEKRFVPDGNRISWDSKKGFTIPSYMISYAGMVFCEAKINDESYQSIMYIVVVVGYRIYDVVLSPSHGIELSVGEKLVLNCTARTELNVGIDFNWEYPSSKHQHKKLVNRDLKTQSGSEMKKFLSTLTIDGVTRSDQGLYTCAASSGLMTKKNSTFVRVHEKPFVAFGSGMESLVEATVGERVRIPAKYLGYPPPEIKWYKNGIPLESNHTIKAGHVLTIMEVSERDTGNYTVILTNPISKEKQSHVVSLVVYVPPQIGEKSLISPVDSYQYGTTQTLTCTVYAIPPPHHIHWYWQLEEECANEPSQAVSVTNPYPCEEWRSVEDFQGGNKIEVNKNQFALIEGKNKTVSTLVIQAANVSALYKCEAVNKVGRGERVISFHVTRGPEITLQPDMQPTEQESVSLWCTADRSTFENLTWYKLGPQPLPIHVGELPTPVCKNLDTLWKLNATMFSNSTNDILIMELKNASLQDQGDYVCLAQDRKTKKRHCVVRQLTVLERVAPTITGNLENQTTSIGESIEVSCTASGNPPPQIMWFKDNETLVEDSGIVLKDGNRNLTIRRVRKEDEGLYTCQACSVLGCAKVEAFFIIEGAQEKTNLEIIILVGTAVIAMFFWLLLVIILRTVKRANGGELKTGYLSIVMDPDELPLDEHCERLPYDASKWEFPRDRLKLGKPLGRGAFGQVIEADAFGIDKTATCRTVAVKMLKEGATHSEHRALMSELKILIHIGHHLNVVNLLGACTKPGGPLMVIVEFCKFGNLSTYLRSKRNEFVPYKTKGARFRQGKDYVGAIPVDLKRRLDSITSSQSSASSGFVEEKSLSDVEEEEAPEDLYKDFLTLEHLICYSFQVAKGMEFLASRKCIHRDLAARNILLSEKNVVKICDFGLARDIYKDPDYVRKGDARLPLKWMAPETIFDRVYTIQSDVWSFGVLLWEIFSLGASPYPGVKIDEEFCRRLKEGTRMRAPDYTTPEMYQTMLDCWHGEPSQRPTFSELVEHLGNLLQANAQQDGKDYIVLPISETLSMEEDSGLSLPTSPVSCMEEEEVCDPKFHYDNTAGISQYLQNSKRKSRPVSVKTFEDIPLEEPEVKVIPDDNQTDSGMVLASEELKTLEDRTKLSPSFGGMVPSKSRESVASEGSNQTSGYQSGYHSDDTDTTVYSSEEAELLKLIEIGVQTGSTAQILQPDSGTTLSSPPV
T1 sequence (Q9NZQ7 19-290): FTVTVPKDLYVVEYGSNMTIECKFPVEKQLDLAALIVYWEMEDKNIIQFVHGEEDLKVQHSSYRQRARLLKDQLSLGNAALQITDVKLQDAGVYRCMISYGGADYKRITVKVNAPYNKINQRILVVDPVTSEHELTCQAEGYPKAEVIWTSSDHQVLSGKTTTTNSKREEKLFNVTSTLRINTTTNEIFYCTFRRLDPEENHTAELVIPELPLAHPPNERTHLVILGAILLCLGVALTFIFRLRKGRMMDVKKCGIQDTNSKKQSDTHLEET

Compound	IC50 [3] [µM]	IC50 [4] [µM]	IC50 [5] [µM]	IC50 [6] [µM]	PD-L1 (%) relative expression [7] [%]	PD-L1 (%) relative expression [8] [%]	melting point [°C]	Membrane VEGFR-2 (%) [14] [%]	Total VEGFR-2 (%) [14] [%]	inhibition at 10 µM ([15]; 10 µM, statement for HT-29 and HMEC-1, read-out: inhibition of both membrane and total VEGFR-2) [%]	Membrane VEGFR-2 (%) [15] [%]	Total VEGFR-2 (%) [15] [%]	c-Myc (%) relative expression [1] [%]	IC50 [2] [µM]	Living HT-29 cell proliferation (%) [9] [%]	c-Myc (%) relative expression [10] [%]	IC50 [11] [µM]	IC50 [12] [µM]	Minimum Active Conc. (inhibition of tube formation) [13] [µM]
Cc1c(COc2ccc(CN3CCCCC3C(=O)O)cc2Br)cccc1-c1ccccc1 (centres unmarked) [BMS-8, reference compound]	6 ± 1	19 ± 2	20 ± 3	> 100	62 ± 3	68 ± 5							60 ± 7	60 ± 10	45	99 ± 4			
COc1ccc(/C=C/c2cccc(NC(=O)Nc3cccc(Cl)c3)c2)cc1 [Compound 5]																	2 to 11		
COc1ccc(/C=C/c2cccc(NC(=O)Nc3ccc(Cl)cc3)c2)cc1 [Compound 6]																	0.4 to 1.8		
CNC(=O)c1cc(Oc2ccc(NC(=O)Nc3ccc(Cl)c(C(F)(F)F)c3)cc2)ccn1 [Sorafenib, sorafenib, reference compound]	27 ± 2	17 ± 4	14 ± 4	6.1 ± 0.4										5 ± 0.7				34 ± 3	10
CCN(CC)CCNC(=O)c1c(C)[nH]c(/C=C2\C(=O)Nc3ccc(F)cc32)c1C [Sunitinib, sunitinib, reference compound]																			3

More lines, main results first:

IC50 [3] [µM]	IC50 [4] [µM]	IC50 [5] [µM]	IC50 [6] [µM]	PD-L1 (%) relative expression [7] [%]	PD-L1 (%) relative expression [8] [%]	melting point [°C]	Membrane VEGFR-2 (%) [14] [%]	Total VEGFR-2 (%) [14] [%]	inhibition at 10 µM ([15]; 10 µM, statement for HT-29 and HMEC-1, read-out: inhibition of both membrane and total VEGFR-2) [%]	Membrane VEGFR-2 (%) [15] [%]	Total VEGFR-2 (%) [15] [%]	Compound	c-Myc (%) relative expression [1] [%]	IC50 [2] [µM]	Living HT-29 cell proliferation (%) [9] [%]	c-Myc (%) relative expression [10] [%]	IC50 [11] [µM]	IC50 [12] [µM]	Minimum Active Conc. (inhibition of tube formation) [13] [µM]
38 ± 6	25 ± 2	28 ± 5	30 ± 7			174						COc1ccc(/C=C\c2cccc(NC(=O)Nc3cccc(Br)c3)c2)cc1 [Compound 15]		23 ± 2				24 ± 4	
3 ± 0.4	0.4 ± 0.3	0.3 ± 0.2	3.1 ± 0.1	18 ± 5	16 ± 6		39 ± 5	74 ± 8	> 50	36 ± 9	39 ± 8	COc1ccc(/C=C/c2cccc(NC(=O)Nc3ccc(Br)cc3)c2)cc1 [Compound 23]	34 ± 4	0.7 ± 0.3	64	49 ± 8		1.8 ± 0.3	1
13 ± 3	0.2 ± 0.2	0.7 ± 0.3	4 ± 1	33 ± 10	50 ± 3		65 ± 9	83 ± 7		68 ± 9	95 ± 9	COc1ccc(/C=C/c2cccc(NC(=O)Nc3ccc(OC)cc3)c2)cc1 [Compound 26]	63 ± 7	1.4 ± 0.6	62	57 ± 9		1.9 ± 0.6	
8 ± 3	4.4 ± 0.8	1.5 ± 0.6	1.4 ± 0.5	38 ± 13	42 ± 11		66 ± 5	93 ± 8		68 ± 13	100 ± 10	COc1ccc(CCc2cccc(NC(=O)Nc3ccc(OC)cc3)c2)cc1 [Compound 33]	83 ± 12	0.9 ± 0.07	62	70 ± 10		0.9 ± 0.03	
